Consider 18 molecules from patent US20250282799A1, “SUBSTITUTED PYRIDO[4,3-d]PYRIMIDINES AS KRAS MODULATORS” (Alterome Therapeutics, Inc., priority 2023, published 2025).

The IC50 is the point on the concentration scale where inhibition reaches its midpoint. A high value points to a need for much substance.

This assay relates to KRAS G12V dependent lung adenocarcinoma cell line, NCI-H441. Put plainly: Cellular pERK (Thr202/Tyr204) FRET/HTRF assay. It is filed as cell-based. As to conditions: Homo sapiens, NCI-H441, pERK HTRF, NCI-H441 cells (KRAS G12V). The gist of the method: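 Adherent NCI-H441 cells, plated the previous night, receive test compound for one hour at 37 °C. They are then lysed with a buffer containing phosphatase inhibitors and incubated at room temperature with Eu3+-cryptate and d2 labelled anti-pERK antibodies. HTRF signal gives IC50 by curve fitting.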
On the technique in general: TR-FRET usually uses a lanthanide donor and a delayed reading to cut background.
`[2H]C([2H])(Oc1nc(N2CCOC[C@@H]3[C@@H](F)[C@@H]32)c2cnc(-c3cc(N)cc4cc(F)c(F)c(C#C)c34)c(F)c2n1)[C@@]12CCCN1C[C@H](F)C2` [Example 27, 5-Ethynyl-6,7-difluoro-4-(8-fluoro-4-((1R,7R,8R)-8-fluoro-5-oxa-2-azabicyclo[5.1.0]octan-2-yl)-2-(((2R,7aS)-2-fluorotetrahydro-1H-pyrrolizin-7a(5H)-yl)methoxy-d2)pyrido[4,3-d]pyrimidin-7-yl)naphthalen-2-amine]: the IC50 was in the range of 50 to 500 nM. As for `[2H]C([2H])(Oc1nc(N2CCOC[C@@H]3[C@H](F)[C@@H]32)c2cnc(-c3cc(N)cc4cc(F)c(F)c(C#C)c34)c(F)c2n1)[C@@]12CCCN1C[C@H](F)C2` [Example 29, 5-Ethynyl-6,7-difluoro-4-(8-fluoro-4-((1R,7R,8S)-8-fluoro-5-oxa-2-azabicyclo[5.1.0]octan-2-yl)-2-(((2R,7aS)-2-fluorotetrahydro-1H-pyrrolizin-7a(5H)-yl)methoxy-d2)pyrido[4,3-d]pyrimidin-7-yl)naphthalen-2-amine], the figure is 50 to 500 nM. As for `[2H]C([2H])(Oc1nc(N2CCOC[C@H]3[C@@H](F)[C@H]32)c2cnc(-c3cc(N)cc4cc(F)c(F)c(C#C)c34)c(F)c2n1)[C@@]12CCCN1C[C@H](F)C2` [Example 30, 5-Ethynyl-6,7-difluoro-4-(8-fluoro-4-((1S,7S,8R)-8-fluoro-5-oxa-2-azabicyclo[5.1.0]octan-2-yl)-2-(((2R,7aS)-2-fluorotetrahydro-1H-pyrrolizin-7a(5H)-yl)methoxy-d2)pyrido[4,3-d]pyrimidin-7-yl)naphthalen-2-amine], the figure is under 50 nM; as for `[2H]C([2H])(Oc1nc(N2CCO[C@@H]3C[C@@H]32)c2cnc(-c3cc(N)cc4cc(F)c(F)c(C#C)c34)c(F)c2n1)[C@@]12CCCN1C[C@H](F)C2` [Example 31, 4-(4-((1R,6S)-2-Oxa-5-azabicyclo[4.1.0]heptan-5-yl)-8-fluoro-2-(((2R,7aS)-2-fluorotetrahydro-1H-pyrrolizin-7a(5H)-yl)methoxy-d2)pyrido[4,3-d]pyrimidin-7-yl)-5-ethynyl-6,7-difluoronaphthalen-2-amine], 50 to 500 nM.

`[2H]C([2H])(Oc1nc(N2CCO[C@H]3C[C@H]32)c2cnc(-c3cc(N)cc4cc(F)c(F)c(C#C)c34)c(F)c2n1)[C@@]12CCCN1C[C@H](F)C2` [Example 32, 4-(4-((1S,6R)-2-Oxa-5-azabicyclo[4.1.0]heptan-5-yl)-8-fluoro-2-(((2R,7aS)-2-fluorotetrahydro-1H-pyrrolizin-7a(5H)-yl)methoxy-d2)pyrido[4,3-d]pyrimidin-7-yl)-5-ethynyl-6,7-difluoronaphthalen-2-amine] came in with an IC50 of 50 to 500 nM. As for `[2H]C([2H])(Oc1nc(N2CCCO[C@@H]3C[C@@H]32)c2c(OC)nc(-c3cc(N)cc4cc(F)c(F)c(C#C)c34)c(F)c2n1)[C@@]12CCCN1C[C@H](F)C2` [Example 33, 4-(4-((1R,7S)-2-Oxa-6-azabicyclo[5.1.0]octan-6-yl)-8-fluoro-2-(((2R,7aS)-2-fluorotetrahydro-1H-pyrrolizin-7a(5H)-yl)methoxy-d2)-5-methoxypyrido[4,3-d]pyrimidin-7-yl)-5-ethynyl-6,7-difluoronaphthalen-2-amine], the figure is 50 to 500 nM.

`[2H]C([2H])(Oc1nc(N2CCCO[C@H]3C[C@H]32)c2c(OC)nc(-c3cc(N)cc4cc(F)c(F)c(C#C)c34)c(F)c2n1)[C@@]12CCCN1C[C@H](F)C2` [Example 34, 4-(4-((1S,7R)-2-Oxa-6-azabicyclo[5.1.0]octan-6-yl)-8-fluoro-2-(((2R,7aS)-2-fluorotetrahydro-1H-pyrrolizin-7a(5H)-yl)methoxy-d2)-5-methoxypyrido[4,3-d]pyrimidin-7-yl)-5-ethynyl-6,7-difluoronaphthalen-2-amine] had an IC50 of under 50 nM.

Molecule `[2H]C([2H])(Oc1nc(N2CCCO[C@@H]3C[C@@H]32)c2c(OC)nc(-c3cc(O)cc4ccc(F)c(C#C)c34)c(F)c2n1)[C@@]12CCCN1C[C@H](F)C2` [Example 35, 4-(4-((1R,7S)-2-Oxa-6-azabicyclo[5.1.0]octan-6-yl)-8-fluoro-2-(((2R,7aS)-2-fluorotetrahydro-1H-pyrrolizin-7a(5H)-yl)methoxy-d2)-5-methoxypyrido[4,3-d]pyrimidin-7-yl)-5-ethynyl-6-fluoronaphthalen-2-ol] displayed an IC50 of 50 to 500 nM. As for `[2H]C([2H])(Oc1nc(N2CCCO[C@H]3C[C@H]32)c2c(OC)nc(-c3cc(O)cc4ccc(F)c(C#C)c34)c(F)c2n1)[C@@]12CCCN1C[C@H](F)C2` [Example 36, 4-(4-((1S,7R)-2-Oxa-6-azabicyclo[5.1.0]octan-6-yl)-8-fluoro-2-(((2R,7aS)-2-fluorotetrahydro-1H-pyrrolizin-7a(5H)-yl)methoxy-d2)-5-methoxypyrido[4,3-d]pyrimidin-7-yl)-5-ethynyl-6-fluoronaphthalen-2-ol], the IC50 is under 50 nM. The value for `[2H]C([2H])(Oc1nc(N2CCO[C@@H]3[C@@H](F)[C@@H]32)c2cnc(-c3cc(N)cc4cc(F)c(F)c(C#C)c34)c(F)c2n1)[C@@]12CCCN1C[C@H](F)C2` [Example 37, 5-Ethynyl-6,7-difluoro-4-(8-fluoro-4-((1S,6R,7S)-7-fluoro-2-oxa-5-azabicyclo[4.1.0]heptan-5-yl)-2-(((2R,7aS)-2-fluorotetrahydro-1H-pyrrolizin-7a(5H)-yl)methoxy-d2)pyrido[4,3-d]pyrimidin-7-yl)naphthalen-2-amine] was 50 to 500 nM. As for `[2H]C([2H])(Oc1nc(N2CCO[C@H]3[C@H](F)[C@H]32)c2cnc(-c3cc(N)cc4cc(F)c(F)c(C#C)c34)c(F)c2n1)[C@@]12CCCN1C[C@H](F)C2` [Example 38, 5-Ethynyl-6,7-difluoro-4-(8-fluoro-4-((1R,6S,7R)-7-fluoro-2-oxa-5-azabicyclo[4.1.0]heptan-5-yl)-2-(((2R,7aS)-2-fluorotetrahydro-1H-pyrrolizin-7a(5H)-yl)methoxy-d2)pyrido[4,3-d]pyrimidin-7-yl)naphthalen-2-amine], the figure is under 50 nM; as for `[2H]C([2H])(Oc1nc(N2CCCO[C@H]3C[C@H]32)c2cnc(-c3ccc(F)c4sc(N)c(C#N)c34)c(F)c2n1)[C@@]12CCCN1C[C@H](F)C2` [Example 39, 4-(4-((1S,7R)-2-Oxa-6-azabicyclo[5.1.0]octan-6-yl)-8-fluoro-2-(((2R,7aS)-2-fluorotetrahydro-1H-pyrrolizin-7a(5H)-yl)methoxy-d2)pyrido[4,3-d]pyrimidin-7-yl)-2-amino-7-fluorobenzo[b]thiophene-3-carbonitrile], 50 to 500 nM. As for `[2H]C([2H])(Oc1nc(N2CCCO[C@@H]3C[C@@H]32)c2cnc(-c3ccc(F)c4sc(N)c(C#N)c34)c(F)c2n1)[C@@]12CCCN1C[C@H](F)C2` [Example 40, 4-(4-((1R,7S)-2-Oxa-6-azabicyclo[5.1.0]octan-6-yl)-8-fluoro-2-(((2R,7aS)-2-fluorotetrahydro-1H-pyrrolizin-7a(5H)-yl)methoxy-d2)pyrido[4,3-d]pyrimidin-7-yl)-2-amino-7-fluorobenzo[b]thiophene-3-carbonitrile], the figure is 500 to 10000 nM.

With `[2H]C([2H])([2H])Oc1c(F)c(F)c(F)c2cc(N)cc(-c3ncc4c(N5CCOC[C@H]6[C@H](F)[C@H]65)nc(OC([2H])([2H])[C@@]56CCCN5C[C@H](F)C6)nc4c3F)c12` [Example 41, 6,7,8-Trifluoro-4-(8-fluoro-4-((1S,7S,8S)-8-fluoro-5-oxa-2-azabicyclo[5.1.0]octan-2-yl)-2-(((2R,7aS)-2-fluorotetrahydro-1H-pyrrolizin-7a(5H)-yl)methoxy-d2)pyrido[4,3-d]pyrimidin-7-yl)-5-(methoxy-d3)naphthalen-2-amine], the IC50 is under 50 nM.

`[2H]C([2H])(Oc1nc(N2CCOC[C@H]3[C@H](F)[C@H]32)c2cnc(-c3cccc4cc(F)c(F)c(C#C)c34)c(F)c2n1)[C@@]12CCCN1C[C@H](F)C2` [Example 42, (1S,7S,8S)-2-(7-(8-Ethynyl-6,7-difluoronaphthalen-1-yl)-8-fluoro-2-(((2R,7aS)-2-fluorotetrahydro-1H-pyrrolizin-7a(5H)-yl)methoxy-d2)pyrido[4,3-d]pyrimidin-4-yl)-8-fluoro-5-oxa-2-azabicyclo[5.1.0]octane] displayed an IC50 of under 50 nM. As for `[2H]C([2H])([2H])Oc1c(F)ccc2cccc(-c3ncc4c(N5CCOC[C@H]6[C@H](F)[C@H]65)nc(OC([2H])([2H])[C@@]56CCCN5C[C@H](F)C6)nc4c3F)c12` [Example 43, (1S,7S,8S)-8-Fluoro-2-(8-fluoro-7-(7-fluoro-8-(methoxy-d3)naphthalen-1-yl)-2-(((2R,7aS)-2-fluorotetrahydro-1H-pyrrolizin-7a(5H)-yl)methoxy-d2)pyrido[4,3-d]pyrimidin-4-yl)-5-oxa-2-azabicyclo[5.1.0]octane], the figure is under 50 nM; as for `[2H]C([2H])([2H])Oc1c(F)c(F)cc2cc(N)cc(-c3ncc4c(N5CCOC[C@H]6[C@H](F)[C@H]65)nc(OC([2H])([2H])[C@@]56CCCN5C[C@H](F)C6)nc4c3F)c12` [Example 44, 6,7-Difluoro-4-(8-fluoro-4-((1S,7S,8S)-8-fluoro-5-oxa-2-azabicyclo[5.1.0]octan-2-yl)-2-(((2R,7aS)-2-fluorotetrahydro-1H-pyrrolizin-7a(5H)-yl)methoxy-d2)pyrido[4,3-d]pyrimidin-7-yl)-5-(methoxy-d3)naphthalen-2-amine], under 50 nM; as for `[2H]C([2H])(Oc1nc(N2CCOC[C@H]3[C@H](F)[C@H]32)c2cnc(-c3cccc4ccc(F)c(C#C)c34)c(F)c2n1)[C@@]12CCCN1C[C@H](F)C2` [Example 45, (1S,7S,8S)-2-(7-(8-Ethynyl-7-fluoronaphthalen-1-yl)-8-fluoro-2-(((2R,7aS)-2-fluorotetrahydro-1H-pyrrolizin-7a(5H)-yl)methoxy-d2)pyrido[4,3-d]pyrimidin-4-yl)-8-fluoro-5-oxa-2-azabicyclo[5.1.0]octane], under 50 nM.
